As usually defined, the pIC50 is the IC50 on a negative log10 scale, so that one unit is a factor of ten. High values mean a small IC50, low ones a large IC50.

pIC50: −log10 of the molar value. Where “and” joins values, the source holds several entries; their conditions need not be identical. Identical values can stand only once.

Consider three compounds from BindingDB's records for patent US10202375 (Redx Pharma PLC, 2019).

For this assay, the target named is Protein Wnt-3a (Mus musculus, UniProt P27467). In words: Dual-Cell beta-Catenin Reporter Assay. On the procedure:
Mouse L cells transfected to constitutively produce biologically active murine Wnt-3a, referred to as L-Wnt cells, were purchased from the American Type Culture Collection, ATCC, Manassas, Va. (ATCC). These cells were cultured in DMEM supplemented with 10% FCS (Gibco/Invitrogen, Carlsbad, Calif.), 1% geneticin and 1% sodium pyruvate (Sigma) at 37° C. with 5% CO2. The cells were seeded into 96 well plates and treated with serial dilutions of compound diluted to 0.1% DMSO concentration. After 24 hours, cell supernatants were transferred to a 96 well plate previously seeded with Leading Light Wnt Reporter Cells, stably transfected with a luciferase gene under control of Wnt pathway response elements. After a further 24 hours, cells are treated with One-glo luciferase assay system (Promega, Madison, Wis.) and the luminescent signal read by envision.
(In general: Reporter assays use an easily measured gene product as a stand-in for the process of interest.)

Protein Wnt-3a, sequence (P27467 whole entry): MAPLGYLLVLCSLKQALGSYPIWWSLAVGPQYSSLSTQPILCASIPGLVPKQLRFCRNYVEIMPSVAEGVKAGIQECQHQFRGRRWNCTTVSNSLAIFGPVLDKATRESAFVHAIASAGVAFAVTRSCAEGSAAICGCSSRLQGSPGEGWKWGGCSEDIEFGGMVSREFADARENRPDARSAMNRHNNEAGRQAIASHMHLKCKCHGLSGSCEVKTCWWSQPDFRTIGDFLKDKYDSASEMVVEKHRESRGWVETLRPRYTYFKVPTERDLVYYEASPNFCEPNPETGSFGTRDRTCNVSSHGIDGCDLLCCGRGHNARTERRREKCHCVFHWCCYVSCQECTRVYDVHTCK

For `Cc1cc(-c2nc(C)nc3c2ccn3CC(=O)Nc2ccc(-c3cnccn3)cn2)ccn1` [US10202375, Example 10], the negative logarithm of the IC50 (pIC50) is > 9.00 and 9.49. With `Cc1cc(-c2ccnc3c2cnn3CC(=O)Nc2ccc(-c3cnccn3)nc2)ccn1` [US10202375, Example 15], the negative logarithm of the IC50 (pIC50) is 8.52. The figure for `Cc1cc(-c2nccc3c2ncn3CC(=O)Nc2ccc(-c3cnccn3)cn2)ccn1` [US10202375, Example 20] is 8.52.
